Measured values from the CheMixHub viscosity set.
Where “and” joins values, the source holds several entries; their conditions need not be identical. Equal values may be shown once.

How the values were obtained:
[1] = xn = mol fraction of the nth substance listed

CCCC[N+]1(C)CCCC1.O=S(=O)([N-]S(=O)(=O)C(F)(F)F)C(F)(F)F
viscosity
Conditions	293.15 K	295.2 K	298.15 K	303.15 K	308.15 K	313.15 K	318.15 K
100 kPa	97.99 mPa·s and 90.17 mPa·s	–	74.9 mPa·s and 70.12 mPa·s	61.58 mPa·s and 56.19 mPa·s	50.81 mPa·s and 45.8 mPa·s	37.99 mPa·s	34.58 mPa·s
101 kPa	86.03 mPa·s and 86.05 mPa·s	–	68.14 mPa·s and 68.16 mPa·s and 70.5 mPa·s	54.03 mPa·s and 54.05 mPa·s	44.37 mPa·s and 44.38 mPa·s	42 mPa·s and 35.75 mPa·s and 35.76 mPa·s	29.71 mPa·s and 29.72 mPa·s
101.3 kPa	–	80 mPa·s	–	–	–	–	–

CCCCCCCC/C=C\CCCCCCCC(=O)O
101 kPa
Conditions	viscosity [mPa·s]
298.15 K	35.41
323.15 K	14.38

CCC[NH3+].O=[N+]([O-])[O-]
Conditions	viscosity [mPa·s]
298 K, 101 kPa	72.61

CCOS(=O)(=O)[O-].CC[n+]1ccn(C)c1
viscosity
Conditions	298.15 K	303.15 K	308.15 K	313.15 K	318.15 K	323.15 K
100 kPa	96.87 mPa·s and 95.9 mPa·s	76.51 mPa·s and 75.7 mPa·s	61.6 mPa·s	61.6 mPa·s	50.5 mPa·s	35.03 mPa·s
101 kPa	95.9 mPa·s and 95.5 mPa·s	75.63 mPa·s and 75.4 mPa·s	–	49.45 mPa·s	–	34.24 mPa·s

CC(C)CN
Conditions	viscosity [mPa·s]
298.15 K, 101 kPa	0.563

CC(O)C(=O)[O-].CN(C)C(=N)[NH+](C)C
101 kPa
Conditions	viscosity [mPa·s]
303.15 K	13700
308.15 K	7300
313.15 K	3960
318.15 K	2260
323.15 K	1370

OCCC1CCCCN1 (centres undefined)
Conditions	viscosity [mPa·s]
313.15 K, 101.3 kPa	77.17

OCCCCO
viscosity
Conditions	293.15 K	298.15 K	303.15 K	308.15 K	313.15 K	318.15 K	323.15 K
101 kPa	96.5 mPa·s and 96.8 mPa·s	72.8 mPa·s and 72.1 mPa·s and 75.6 mPa·s	54.3 mPa·s and 57.2 mPa·s and 50.53 mPa·s	–	32.8 mPa·s and 35.4 mPa·s and 37.03 mPa·s	–	–
101.3 kPa	92.14 mPa·s	71.91 mPa·s	–	45.04 mPa·s	36.26 mPa·s	29.38 mPa·s	24.18 mPa·s
101.33 kPa	91.27 mPa·s	72.83 mPa·s	56.05 mPa·s	45.06 mPa·s	36.02 mPa·s	30.61 mPa·s	–

CC[n+]1ccccc1.O=S(=O)([O-])C(F)(F)F
101 kPa
Conditions	viscosity [mPa·s]
293.15 K	75.2
298.15 K	60.58
303.15 K	48.77
313.15 K	33.78
323.15 K	24.47

[Cl-].[Cl-].[Cl-].[Cl-].[Sn+4]
101 kPa
Conditions	viscosity
293.15 K	0.951 mPa·s and 0.927 mPa·s
298.15 K	0.919 mPa·s and 0.8145 mPa·s
313.15 K	0.715 mPa·s and 0.758 mPa·s
323.15 K	0.668 mPa·s and 0.683 mPa·s and 0.683 mPa·s

CN(c1ccccc1)c1ccccc1
101 kPa
Conditions	viscosity
293.15 K	7.25 mPa·s
293.25 K	7.22 mPa·s
303.15 K	5.13 mPa·s
313.15 K	3.84 mPa·s and 3.835 mPa·s

O=C1CCCN1
101.33 kPa
Conditions	viscosity [mPa·s]
304.15 K	10.5
308.15 K	9.102
313.15 K	7.687
318.15 K	6.593
323.15 K	5.666

CC(C)Cc1ccccc1
viscosity [mPa·s]
Conditions	293.15 K	303.15 K	313.15 K	323.15 K
101 kPa	–	0.899	0.771	–
102 kPa	1.02	0.883	0.769	0.68

Cc1cc(C)cc(C)c1 + O=C1CCCCC1
viscosity [mPa·s], [1], 101.33 kPa
Conditions	x2 = 0.0996	x2 = 0.1988	x2 = 0.3039	x2 = 0.4042	x2 = 0.5038	x2 = 0.602	x2 = 0.7001	x2 = 0.8014	x2 = 0.8988
298.15 K	0.702	0.75	0.81	0.882	0.965	1.067	1.193	1.375	1.607
303.15 K	0.657	0.702	0.755	0.819	0.896	0.987	1.115	1.258	1.484
308.15 K	0.619	0.659	0.706	0.765	0.835	0.915	1.027	1.168	1.373

Cc1cc(C)cc(C)c1
Conditions	viscosity
293.15 K, 101 kPa	0.692 mPa·s and 0.721 mPa·s
293.15 K, 101.33 kPa	0.692 mPa·s
293.15 K, 102 kPa	0.699 mPa·s
295.01 K, 101.33 kPa	0.6861 mPa·s
298.15 K, 101 kPa	0.6025 mPa·s and 0.6518 mPa·s
298.15 K, 101.3 kPa	0.656 mPa·s and 0.671 mPa·s
298.15 K, 101.33 kPa	0.6 mPa·s and 0.658 mPa·s
298.38 K, 100 kPa	0.6595 mPa·s
298.38 K, 101.33 kPa	0.6595 mPa·s
302.82 K, 101.33 kPa	0.6227 mPa·s
303 K, 101 kPa	0.6123 mPa·s and 0.6124 mPa·s
303.15 K, 101 kPa	0.633 mPa·s and 0.612 mPa·s
303.15 K, 101.3 kPa	0.616 mPa·s and 0.624 mPa·s
303.15 K, 101.33 kPa	0.564 mPa·s
303.15 K, 102 kPa	0.606 mPa·s
307.35 K, 101.33 kPa	0.584 mPa·s
307.4 K, 101.33 kPa	0.309 mPa·s
307.78 K, 101.33 kPa	0.5879 mPa·s
308.15 K, 101.3 kPa	0.581 mPa·s and 0.589 mPa·s
308.15 K, 101.33 kPa	0.5482 mPa·s and 0.585 mPa·s
308.5 K, 101 kPa	0.597 mPa·s
312.69 K, 100 kPa	0.5561 mPa·s
312.69 K, 101.33 kPa	0.5561 mPa·s
313 K, 101 kPa	0.5482 mPa·s and 0.5481 mPa·s
313.15 K, 102 kPa	0.534 mPa·s
317.53 K, 101.33 kPa	0.5269 mPa·s
318.15 K, 101 kPa	0.3678 mPa·s and 0.52 mPa·s
322.26 K, 101.33 kPa	0.5017 mPa·s
323 K, 101 kPa	0.491 mPa·s and 0.4898 mPa·s
323.15 K, 101 kPa	0.495 mPa·s
323.15 K, 102 kPa	0.476 mPa·s

O=S=O + Cc1ccccc1
[1], 298.15 K, 101 kPa
Conditions	viscosity [mPa·s]
x1 = 0.0185	0.5449
x1 = 0.0455	0.5339
x1 = 0.104	0.5121
x1 = 0.1897	0.4881

CC=CC(=O)OCC
101 kPa
Conditions	viscosity [mPa·s]
293.15 K	0.8184
298.15 K	0.7576
303.15 K	0.7053
313.15 K	0.6154
323.15 K	0.5471

CCC(C)CC
101.33 kPa
Conditions	viscosity [mPa·s]
298 K	0.288
298.15 K	0.2909

O=S=O + ClC(Cl)Cl
[1], 298.15 K, 101 kPa
Conditions	viscosity [mPa·s]
x1 = 0.0035	0.5141
x1 = 0.004762	0.5053
x1 = 0.00539	0.5022

Cc1cc(C)cc(C)c1 + ClC(Cl)(Cl)Cl
[1], 298.15 K, 101 kPa
Conditions	viscosity [mPa·s]
x1 = 0.1	0.8579
x1 = 0.2	0.8194
x1 = 0.3	0.7889
x1 = 0.4	0.7637
x1 = 0.5	0.7421
x1 = 0.6	0.7226
x1 = 0.7	0.7044
x1 = 0.8	0.6875
x1 = 0.9	0.672

OC[C@H]1O[C@H](O[C@H]2O[C@H](CO)[C@@H](O)[C@H](O)[C@H]2O)[C@H](O)[C@@H](O)[C@@H]1O + O
[1], 298.15 K, 101 kPa
Conditions	viscosity [mPa·s]
x1 = 0.0009	0.935
x1 = 0.001798	0.982
x1 = 0.002695	1.032
x1 = 0.00359	1.084
x1 = 0.004484	1.139
x1 = 0.005375	1.197

O=P([O-])([O-])O.[Na+].[Na+] + O
viscosity [mPa·s], [1]
Conditions	293.15 K	298.15 K	303.15 K	308.15 K
100 kPa, x1 = 0.01115	–	1.215	1.095	–
100 kPa, x1 = 0.01333	1.455	–	–	–
100 kPa, x1 = 0.01698	–	–	–	1.175
101 kPa, x1 = 0.0018	–	0.948	0.8587	0.7663
101 kPa, x1 = 0.0054	–	1.05	0.968	0.8559
101 kPa, x1 = 0.0089	–	1.232	1.076	0.94
101 kPa, x1 = 0.012	–	1.441	1.228	1.152
101 kPa, x1 = 0.016	–	1.727	1.536	1.452

CC(C)CN + COCCO
[1], 298.15 K, 101 kPa
Conditions	viscosity [mPa·s]
x2 = 0.05	0.614
x2 = 0.1001	0.666
x2 = 0.1511	0.719
x2 = 0.2	0.788
x2 = 0.2513	0.869
x2 = 0.2996	0.95
x2 = 0.3519	1.043
x2 = 0.4002	1.132
x2 = 0.4491	1.221
x2 = 0.4989	1.308
x2 = 0.5501	1.387
x2 = 0.6	1.457
x2 = 0.6521	1.52
x2 = 0.6999	1.567
x2 = 0.7502	1.608
x2 = 0.8	1.632
x2 = 0.8512	1.643
x2 = 0.9	1.641
x2 = 0.9492	1.609

O=C1CCCN1 + CCCCO
Conditions	viscosity [mPa·s]
[1], 293.15 K, 101 kPa, x1 = 0.8554	10.75

O=C1CCCN1 + COCCO
[1], 298.15 K, 101 kPa
Conditions	viscosity [mPa·s]
x1 = 0.0049	1.544
x1 = 0.0127	1.567
x2 = 0.0059	14.01
x2 = 0.0144	13.59
x2 = 0.0218	13.27
x2 = 0.0326	12.77
x2 = 0.0446	12.37
x2 = 0.0689	11.33
x2 = 0.0849	10.74
x2 = 0.1078	10.07
x2 = 0.127	9.467
x2 = 0.1824	8.072
x2 = 0.2392	6.994
x2 = 0.2918	6.075
x2 = 0.3249	5.599
x2 = 0.3711	5.006
x2 = 0.4202	4.585
x2 = 0.5242	3.631
x2 = 0.5773	3.264
x2 = 0.6342	2.895
x2 = 0.6686	2.717
x2 = 0.7286	2.446
x2 = 0.7755	2.248
x2 = 0.8174	2.089
x2 = 0.8558	1.966
x2 = 0.9003	1.819
x2 = 0.9214	1.756
x2 = 0.9381	1.703
x2 = 0.9524	1.669
x2 = 0.9729	1.604
